According to the supplement of paper PMC10307832:

Columns and labels:
Assay in all cases: relative viability (nuclei count vs DMSO), 5 days (fraction); higher = more cells survive
Selumetinib + Navitoclax = compound: Cn1cnc2c(F)c(Nc3ccc(Br)cc3Cl)c(C(=O)NOCCO)cc21 [Selumetinib] + CC1(C)CCC(c2ccc(Cl)cc2)=C(CN2CCN(c3ccc(C(=O)NS(=O)(=O)c4ccc(N[C@H](CCN5CCOCC5)CSc5ccccc5)c(S(=O)(=O)C(F)(F)F)c4)cc3)CC2)C1 [Navitoclax] (partner 0.5 µM)
Summary of the method: (§1)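 Lung cancer cell lines were pin-tool dosed in 1536-well plates on the day after seeding, with either a lone drug or a fixed anchor-drug dose plus five library-drug doses (not always all listed) in √10 steps. Nuclei were counted on 4× images after 5 days. Relative viability is the ratio of treated-well to vehicle-well nuclei counts, with each value a median of duplicate plates.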

Venetoclax + OSI-027 = compound: CC1(C)CCC(CN2CCN(c3ccc(C(=O)NS(=O)(=O)c4ccc(NCC5CCOCC5)c([N+](=O)[O-])c4)c(Oc4cnc5[nH]ccc5c4)c3)CC2)=C(c2ccc(Cl)cc2)C1 [Venetoclax] + COc1cccc2cc(-c3nc([C@H]4CC[C@H](C(=O)O)CC4)n4ncnc(N)c34)[nH]c12 [OSI-027] (partner 0.5 µM)
Summary of the method: as §1

Selumetinib + Linsitinib = compound: Cn1cnc2c(F)c(Nc3ccc(Br)cc3Cl)c(C(=O)NOCCO)cc21 [Selumetinib] + C[C@]1(O)C[C@@H](c2nc(-c3ccc4ccc(-c5ccccc5)nc4c3)c3c(N)nccn32)C1 [Linsitinib] (partner 1 µM)
Summary of the method: as §1

Venetoclax + Vorinostat = compound: CC1(C)CCC(CN2CCN(c3ccc(C(=O)NS(=O)(=O)c4ccc(NCC5CCOCC5)c([N+](=O)[O-])c4)c(Oc4cnc5[nH]ccc5c4)c3)CC2)=C(c2ccc(Cl)cc2)C1 [Venetoclax] + O=C(CCCCCCC(=O)Nc1ccccc1)NO [Vorinostat] (partner 1 µM)
Summary of the method: as §1

Cell Line	relative viability (Selumetinib + Navitoclax; first compound 0.02 µM)	relative viability (Selumetinib + Navitoclax; first compound 0.06325 µM)	relative viability (Selumetinib + Navitoclax; first compound 0.2 µM)	relative viability (Selumetinib + Navitoclax; first compound 0.6325 µM)	relative viability (Venetoclax + OSI-027; first compound 0.01 µM)	relative viability (Venetoclax + OSI-027; first compound 0.03162 µM)	relative viability (Venetoclax + OSI-027; first compound 0.1 µM)	relative viability (Venetoclax + OSI-027; first compound 0.3162 µM)	relative viability (Venetoclax + OSI-027; first compound 1 µM)	relative viability (Selumetinib + Linsitinib; first compound 0.02 µM)	relative viability (Selumetinib + Linsitinib; first compound 0.06325 µM)	relative viability (Selumetinib + Linsitinib; first compound 0.2 µM)	relative viability (Selumetinib + Linsitinib; first compound 0.6325 µM)	relative viability (Venetoclax + Vorinostat; first compound 0.01 µM)	relative viability (Venetoclax + Vorinostat; first compound 0.03162 µM)	relative viability (Venetoclax + Vorinostat; first compound 0.1 µM)	relative viability (Venetoclax + Vorinostat; first compound 0.3162 µM)	relative viability (Venetoclax + Vorinostat; first compound 1 µM)
NCI-H1755	1.03	0.986	0.961	0.948	0.73	0.74	0.68	0.757	0.667	0.95	0.852	0.845	0.848	0.751	0.801	0.774	0.739	0.741
NCI-H1793	0.478	0.304	0.311	0.281	0.299	0.37	0.207	0.239	0.186	0.883	0.817	0.419	0.392	0.685	0.958	0.703	0.801	0.623
NCI-H1915	0.714	0.792	0.795	0.498	0.587	0.624	0.596	0.612	0.586	0.768	1.02	0.926	0.539	0.49	0.533	0.478	0.54	0.512
NCI-H1944	0.97	0.945	0.756	0.779	0.483	0.431	0.378	0.411	0.376	0.979	0.928	0.762	0.687	0.606	0.586	0.442	0.608	0.498
NCI-H1975	1.23	1.22	1.01	0.728	0.768	0.788	0.667	0.702	0.68	1	0.886	0.892	0.623	0.692	0.678	0.743	0.688	0.72
NCI-H1993	0.801	0.79	0.749	0.648	0.562	0.505	0.519	0.486	0.605	0.746	0.688	0.754	0.878	0.747	1	0.714	0.728	0.615
NCI-H2009	1.07	0.935	0.673	0.554	0.655	0.668	0.602	0.624	0.573	1.07	0.842	0.562	0.489	0.746	0.729	0.758	0.714	0.681
NCI-H2023	0.937	0.924	0.959	0.783	0.44	0.363	0.313	0.427	0.312	0.583	0.546	0.466	0.576	0.749	0.708	0.73	0.631	0.587
NCI-H2085	1.09	1.07	0.913	0.795	0.838	0.769	0.707	0.746	0.53	0.863	0.82	0.737	0.763	0.713	0.807	0.795	0.817	0.765
NCI-H2087	0.838	0.585	0.457	0.431	0.534	0.735	0.456	0.539	0.435	0.817	0.647	0.595	0.374	0.606	0.824	0.881	0.799	0.953
NCI-H2126	0.789	0.764	0.75	0.59	0.691	0.794	0.719	0.692	0.636	0.679	0.674	0.595	0.538	0.848	0.798	0.687	0.774	0.699
NCI-H2228	0.928	0.678	0.789	0.729	0.423	0.545	0.62	0.546	0.396	0.605	0.628	0.671	0.359	0.915	0.623	0.799	0.461	0.436
NCI-H2347	0.752	0.403	0.271	0.228	0.32	0.417	0.377	0.485	0.372	0.748	0.633	0.47	0.436	0.574	0.753	0.461	0.593	0.591
NCI-H2405	0.771	0.636	0.525	0.37	0.64	0.711	0.624	0.612	0.619	0.77	0.575	0.546	0.392	0.944	1.27	1.03	1.07	0.889
NCI-H3122	0.937	0.852	0.908	0.808	1.09	0.979	0.983	0.871	0.909	0.933	0.817	0.766	0.728	1.11	0.881	0.802	0.916	0.885
PC-3 [JPC-3]	0.824	0.744	0.721	0.651	0.676	0.719	0.779	0.791	0.608	0.95	0.876	0.92	0.727	0.879	1.12	0.929	0.915	0.675
PC-14	1.02	1.03	0.957	0.949	0.735	0.875	0.696	0.855	0.722	0.935	0.87	0.912	0.9	0.642	0.788	0.822	0.692	0.641
